US5795899A, “Soluble salts of 4-amino-2-(4,4-dimethylimidazolidin-2-on-1-yl) pyrimidine-5-carboxylic acid N-methyl-N-(3-trifluoromethylphenyl)-amide, a process for the preparation thereof, the use thereof as pharmaceuticals and starting materials” (Hoechst Aktiengesellschaft, priority 1992, dated 1998)

Key:
[1] = test system: serum lipoproteins; assay: Effect on serum lipoproteins of normolipemic male rats in a subchronic test; format: in vivo, male Wistar rats, HOE: WISKf (SPF 71) strain; details: for % change compared with control, protein LDL / % change compared with control, total cholesterol LDL / % change compared with control, total cholesterol VLDL / % change compared with control, triglycerides VLDL: oral, 7 days
Procedure: 4.1 Effect on serum lipoproteins of normolipemic male rats in a subchronic test
Groups of in each case 10 male rats of the HOE: WISKf (SPF 71) strain with an initial weight above 180 g received once a day (in the morning) the test product or the comparison product in 1% aqueous ®Tylose MH 300 solution by stomach tube (0.5 ml/100 g of body weight); the control group in each case received only the vehicle. The last (7th) administration took place 24 hours before removal of blood and sacrifice. There was free access to food and water during the test. The food was withdrawn 24 hours before the removal of blood.
The serum from all 10 rats in a group was pooled for the analysis of the serum lipoproteins. The serum lipoproteins were separated with a preparative ultracentrifuge (KONTRON TGA 65, Rotor BECKMAN 50.4 Ti).
The following conditions specified by Koga, S., Horwitz, D. L., and Scanu, A. M., Journal of Lipid Research 10, 577 (1969) and Havel, R. J., Eder, H. A., and Bragdon, H. H., J. Clin. Invest. 34, 1345 (1955) were used to separate VLDL, LDL and HDL:
Test kits from BOEHRINGER/Mannheim were used for the enzymatic determination of cholesterol and triglycerides in the separated lipoprotein fractions (compare Siedel, J., Schlumberger, H., Klose, S., Ziegenhorn, J. and Wahlefeld, A. W., J. Clin. Chem. Clin. Biochem. 19, 838 (1981) and Wahlefeld, A. W., in: H. O. Bergmeier: Methoden der enzymatischen Analyse (Methods of Enzymatic Analysis), 2nd edition, Volume II, Verlag Chemie 1974, page 1878). The proteins were determined by the method of Lowry (Lowry, O. H., Roseborough, N. J., Farr, A. L. and R. J. Randell, J. Biol. Chem. 193, 265 (1951)).
Clofibrate was used as comparison product.

[2] = test system: hypercholesterolemia; assay: Effect on experimental hypercholesterolemia in male rats; format: in vivo, male Wistar rats, HOE: WISKf (SPF 71) strain; details: oral, 7 days; for Total cholesterol (x): mean x
Procedure: Groups of in each case 10 male rats of the HOE: WISKf (SPF 71) strain with a weight of about 200 g received each day in the morning a cocktail which contained the substances required to generate a combined dietetic/hormonal hypercholesterolemia, and in each case the product to be tested for the inhibition of hypercholesterolemia, in appropriate dosage. The cocktail was composed of a mixture of 100 g of cholesterol, 30 g of propylthiouracil and 100 g of cholic acid in 1 l of peanut oil. 1 ml of this/100 g of body weight was administered by gavage. The products to be tested were suspended in this cocktail in a concentration such that it contained the daily dose indicated in Table 4 on administration of the amount mentioned above. The other procedure for the treatment and the analysis of the individual parameters were carried out as indicated under 4.1.
Clofibrate was used as comparison product. The results are compiled in Table 4, wherein a) indicates the absolute values and b) indicates the percentage changes.

[3] = Side effects like those observed with the statins; details: general statement
[4] = test system: carbohydrate-induced hypertriglyceridemia; assay: Inhibition of carbohydrate-induced hypertriglyceridemia; format: in vivo, male Sprague-Dawley rats; details: oral, 4 days; for Triglycerides in serum (x): mean x
Procedure: Groups of in each case 10 male Sprague-Dawley rats (supplied by the breeder Mollegard with a weight of 250-280 g) received on each of 4 consecutive days one administration of the compound dissolved in PEG 400 by gavage. In addition, after the 3rd administration and 8 and 24 hours later they received 2.5 g of fructose/kg, likewise by gavage. Moreover, after the 3rd administration of product, 50% strength fructose solution was offered to them as drinking water ad libitum, and the food was withdrawn. Retroorbital removal of blood, from which the serum was obtained for the triglyceride determination and VLDL preparation in the ultracentrifuge (flotation at d=1.006), took place 3 hours after the last product/fructose administration. The food received by the animals from 1 week before the 1st administration and up to the 3rd administration was a diet with 40% casein in the feed meal.
The animals develop, as a result of this treatment, a hypertriglyceridemia which approximately corresponds to Fredrickson phenotype IV in humans. The serum triglycerides of the normal animals increased from 0.54 to 1.1 mmol/l, and the VLDL triglycerides from 0.67 to 1.81.

[5] = test system: tumor cells (L 1210, A 549, HT 29); assay: Cell proliferation inhibition (MTT assay), overall statement; format: cell-based, mouse and human
Procedure: The reduced inhibitory effect on cell proliferation was tested on exponentially growing animal (mouse leukemia cells, L 1210) and human (bronchial carcinoma cells, A 549; colon carcinoma cells, HT 29) tumor cells. This entailed the tumor cells being incubated in RPMI standard medium with various concentrations of the test substances for 72 hours. Cell incubations only in fresh medium served as control. Incubations were set up in quadruplet. […] After incubation for a further 7 to 24 hours, the cell supernatant was carefully removed and the formazan dye in the cells was solubilized by adding DMSO and measured quantitatively by photometry at 492 nm. The ratio of the extinction of the substance incubations to the control incubation was quantified. The coefficient of variation in each incubation series was less than 15%. The following Table 6 indicates the IC50 values (IC50 [μg/ml] is the concentration of the test substance per ml which is necessary for 50% inhibition) from these investigations.

[6] = physchem; details: water

CN(C(=O)c1cnc(N2CC(C)(C)NC2=O)nc1N)c1cccc(C(F)(F)F)c1 [Compound I, 4-amino-2-(4,4-dimethylimidazolidin-2-on-1-yl)pyrimidine-5-carboxylic acid N-methyl-N-(3-trifluoromethylphenyl)amide]
% change compared with control, protein LDL ([1]; 1 mg/kg/day): -15% | % change compared with control, total cholesterol LDL ([1]; 1 mg/kg/day): -17% | % change compared with control, total cholesterol VLDL ([1]; 1 mg/kg/day): +4% | % change compared with control, triglycerides VLDL ([1]; 1 mg/kg/day): +8% | % change compared with control, protein LDL ([1]; 3 mg/kg/day): -25% | % change compared with control, total cholesterol LDL ([1]; 3 mg/kg/day): -32% | % change compared with control, total cholesterol VLDL ([1]; 3 mg/kg/day): -24% | % change compared with control, triglycerides VLDL ([1]; 3 mg/kg/day): -25% | % change compared with control, protein LDL ([1]; 10 mg/kg/day): -41% | % change compared with control, total cholesterol LDL ([1]; 10 mg/kg/day): -49% | % change compared with control, total cholesterol VLDL ([1]; 10 mg/kg/day): -52% | % change compared with control, triglycerides VLDL ([1]; 10 mg/kg/day): -62% | % change compared with control, protein LDL ([1]; 30 mg/kg/day): -52% | % change compared with control, total cholesterol LDL ([1]; 30 mg/kg/day): -64% | % change compared with control, total cholesterol VLDL ([1]; 30 mg/kg/day): -59% | % change compared with control, triglycerides VLDL ([1]; 30 mg/kg/day): -79% | HDL levels (in words) ([1]; general statement): unaffected | % change compared with control, protein "HDL" d > 1.04 ([2]; 10 mg/kg/day): -7% | % change compared with control, protein LDL ([2]; 10 mg/kg/day): -16% | % change compared with control, protein VLDL ([2]; 10 mg/kg/day): -8% | % change compared with control, total cholesterol "HDL" d > 1.04 ([2]; 10 mg/kg/day): -14% | % change compared with control, total cholesterol LDL ([2]; 10 mg/kg/day): -13% | % change compared with control, total cholesterol VLDL ([2]; 10 mg/kg/day): -34% | % change compared with control, triglycerides VLDL ([2]; 10 mg/kg/day): -54% | Lipoprotein fraction protein "HDL" ([2]; 10 mg/kg/day): 5004 | Lipoprotein fraction protein LDL ([2]; 10 mg/kg/day): 1040 | Lipoprotein fraction protein VLDL ([2]; 10 mg/kg/day): 1981 | Lipoprotein fraction total cholesterol "HDL" ([2]; 10 mg/kg/day): 508 | Lipoprotein fraction total cholesterol LDL ([2]; 10 mg/kg/day): 4099 | Lipoprotein fraction total cholesterol VLDL ([2]; 10 mg/kg/day): 3088 | Lipoprotein fraction triglycerides VLDL ([2]; 10 mg/kg/day): 677 | Serum % change compared with control at the end of treatment, total cholesterol ([2]; 10 mg/kg/day): -24% | Serum % change compared with control at the end of treatment, triglycerides ([2]; 10 mg/kg/day): -16% | Triglycerides, pool ([2]; 10 mg/kg/day): 2.45 mmol/L | Total cholesterol (x) ([2]; 10 mg/kg/day): 556 mg/dL | % change compared with control, protein "HDL" d > 1.04 ([2]; 30 mg/kg/day): -24% | % change compared with control, protein LDL ([2]; 30 mg/kg/day): -68% | % change compared with control, protein VLDL ([2]; 30 mg/kg/day): -49% | % change compared with control, total cholesterol "HDL" d > 1.04 ([2]; 30 mg/kg/day): +79% | % change compared with control, total cholesterol LDL ([2]; 30 mg/kg/day): -92% | % change compared with control, total cholesterol VLDL ([2]; 30 mg/kg/day): -97% | % change compared with control, triglycerides VLDL ([2]; 30 mg/kg/day): -71% | Lipoprotein fraction protein "HDL" ([2]; 30 mg/kg/day): 4090 | Lipoprotein fraction protein LDL ([2]; 30 mg/kg/day): 391 | Lipoprotein fraction protein VLDL ([2]; 30 mg/kg/day): 1105 | Lipoprotein fraction total cholesterol "HDL" ([2]; 30 mg/kg/day): 1056 | Lipoprotein fraction total cholesterol LDL ([2]; 30 mg/kg/day): 369 | Lipoprotein fraction total cholesterol VLDL ([2]; 30 mg/kg/day): 126 | Lipoprotein fraction triglycerides VLDL ([2]; 30 mg/kg/day): 425 | Serum % change compared with control at the end of treatment, total cholesterol ([2]; 30 mg/kg/day): -81% | Serum % change compared with control at the end of treatment, triglycerides ([2]; 30 mg/kg/day): -62% | Triglycerides, pool ([2]; 30 mg/kg/day): 1.10 mmol/L | Total cholesterol (x) ([2]; 30 mg/kg/day): 137 mg/dL | Side effects of the statin type observed to date [3]: Nor have side effects of this type been observed to date | Solubility in water (in words): exceptionally slightly soluble in water | 1 part by mass dissolves in . . . parts of H2 O (Table 2, Temp. [°C]: hydrochloride 25.0, nitrate 23.5, p-toluenesulfonate 23.2, hydrogen (R,R)-tartrate 24.6, free base 24.8): 1220 parts of H2 O | Triglycerides in serum, % change from fructose control ([4]; 1 mg/kg/day): -36% | Triglycerides in the VDVL fraction, % change from fructose control ([4]; 1 mg/kg/day): -45% | Triglycerides in the VDVL fraction, pool n = 10 ([4]; 1 mg/kg/day): 1.00 mmol/L | Triglycerides in serum (x) ([4]; 1 mg/kg/day): 0.71 mmol/L | Triglycerides in serum, % change from fructose control ([4]; 3 mg/kg/day): -51% | Triglycerides in the VDVL fraction, % change from fructose control ([4]; 3 mg/kg/day): -62% | Triglycerides in the VDVL fraction, pool n = 10 ([4]; 3 mg/kg/day): 0.69 mmol/L | Triglycerides in serum (x) ([4]; 3 mg/kg/day): 0.54 mmol/L | Triglycerides in serum, % change from fructose control ([4]; 10 mg/kg/day): -68% | Triglycerides in the VDVL fraction, % change from fructose control ([4]; 10 mg/kg/day): -80% | Triglycerides in the VDVL fraction, pool n = 10 ([4]; 10 mg/kg/day): 0.37 mmol/L | Triglycerides in serum (x) ([4]; 10 mg/kg/day): 0.35 mmol/L | Triglycerides in serum, % change from fructose control ([4]; 30 mg/kg/day): -74% | Triglycerides in the VDVL fraction, % change from fructose control ([4]; 30 mg/kg/day): -90% | Triglycerides in the VDVL fraction, pool n = 10 ([4]; 30 mg/kg/day): 0.19 mmol/L | Triglycerides in serum (x) ([4]; 30 mg/kg/day): 0.29 mmol/L | Proliferation inhibition compared with imanixil (HOE 402) / its hydrochloride (in words) [5]: distinctly reduced proliferation inhibition | solubility [6]: 800 µg/mL | solubility ([6]; Solubility in water: molarity, Table 2, free base, 24.8 °C): 2000 µM
